# Several values for one entry are separate records, joined by “and”; a condition that tells them apart may be missing. Equal values may be shown once. Toxic doses and inconclusive results are not listed.
# System: P388 leukemia ip, CD2F1 mice, survival T/C
# Assay: NCI In Vivo Anticancer Drug Screen. Data for tumor model P388 Leukemia (intraperitoneal) in CD2F1 (CDF1) mice
# Conditions: endpoint: median survival time, higher = longer survival
# Method in brief: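 Mice carrying the transplanted tumor received test compound or vehicle. Survival was recorded in each group, and the value is the treated-group measurement divided by that of the vehicle-treated control group.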
# [1] = dose: 50.0 mg/kg/injection, schedule: Q01DX009 (ip), vehicle: Klucel (hydroxypropylcellulose) (HPC)
# [2] = dose: 100.0 mg/kg/injection, schedule: Q01DX009 (ip), vehicle: Klucel (hydroxypropylcellulose) (HPC)
# [3] = dose: 200.0 mg/kg/injection, schedule: Q01DX009 (ip), vehicle: Klucel (hydroxypropylcellulose) (HPC)
# [4] = dose: 25.0 mg/kg/injection, schedule: Q01DX009 (ip), vehicle: Klucel (hydroxypropylcellulose) (HPC)
# [5] = dose: 50.0 mg/kg/injection, schedule: Q01DX005 (ip), vehicle: Klucel (hydroxypropylcellulose) (HPC)
# [6] = dose: 100.0 mg/kg/injection, schedule: Q01DX005 (ip), vehicle: Klucel (hydroxypropylcellulose) (HPC)
# [7] = dose: 3.13 mg/kg/injection, schedule: Q01DX009 (ip), vehicle: saline
# [8] = dose: 100.0 mg/kg/injection, schedule: Q01DX009 (ip), vehicle: saline
# [9] = dose: 200.0 mg/kg/injection, schedule: Q01DX009 (ip), vehicle: saline
# [10] = dose: 50.0 mg/kg/injection, schedule: Q01DX005 (ip), vehicle: saline with Tween-80
# [11] = dose: 100.0 mg/kg/injection, schedule: Q01DX005 (ip), vehicle: saline with Tween-80
# [12] = dose: 200.0 mg/kg/injection, schedule: Q01DX005 (ip), vehicle: saline with Tween-80
# [13] = dose: 50.0 mg/kg/injection, schedule: Q01DX009 (ip), vehicle: saline with Tween-80
# [14] = dose: 100.0 mg/kg/injection, schedule: Q01DX009 (ip), vehicle: saline with Tween-80
# [15] = dose: 200.0 mg/kg/injection, schedule: Q01DX009 (ip), vehicle: saline with Tween-80
# [16] = dose: 50.0 mg/kg/injection, schedule: Q01DX009 (ip), vehicle: saline
# [17] = dose: 200.0 mg/kg/injection, schedule: Q01DX005 (ip), vehicle: Klucel (hydroxypropylcellulose) (HPC)
# [18] = dose: 60.0 mg/kg/injection, schedule: Q01DX005 (ip), vehicle: Klucel (hydroxypropylcellulose) (HPC)
smiles,measurement,setting,value
COc1c(C(C)(C)C)cc(C(C)(C)C)c(OC)c1Br,T/C,[1],100 % of control
same,T/C,[2],94 % of control
same,T/C,[3],87 % of control
Cn1nc(CC#N)c2c(=N)n(N)cnc21,T/C,[4],119 % of control
same,T/C,[1],109 % of control
same,T/C,[2],104 % of control
same,T/C,[3],113 % of control
COCc1cccnc1,T/C,"dose: 25.0 mg/kg/injection, schedule: Q01DX005 (ip), vehicle: Klucel (hydroxypropylcellulose) (HPC)",97 % of control
same,T/C,[5],93 % of control
same,T/C,[6],88 % of control
C=CCSc1nc2ccc(N3C(=O)CCC3=O)cc2s1,T/C,"dose: 12.5 mg/kg/injection, schedule: Q01DX009 (ip), vehicle: Klucel (hydroxypropylcellulose) (HPC)",105 % of control
same,T/C,[4],103 % of control
same,T/C,[1],101 % of control and 102 % of control
same,T/C,[2],92 % of control
same,T/C,[3],89 % of control
COc1cc(C2c3cc4c(cc3OC(C)(OC)C2C(C)=O)OCO4)cc(OC)c1OC (configuration not stated),T/C,"dose: 60.0 mg/kg/injection, schedule: Q01DX005 (ip), vehicle: saline with Tween-80",90 % of control
same,T/C,"dose: 120.0 mg/kg/injection, schedule: Q01DX005 (ip), vehicle: saline with Tween-80",94 % of control
same,T/C,"dose: 240.0 mg/kg/injection, schedule: Q01DX005 (ip), vehicle: saline with Tween-80",95 % of control
NS(=O)(=O)C1CCCCC1,T/C,[7],106 % of control
same,T/C,"dose: 6.25 mg/kg/injection, schedule: Q01DX009 (ip), vehicle: saline",99 % of control
same,T/C,"dose: 12.5 mg/kg/injection, schedule: Q01DX009 (ip), vehicle: saline",106 % of control
same,T/C,"dose: 25.0 mg/kg/injection, schedule: Q01DX009 (ip), vehicle: saline",106 % of control
COc1cc(C2N3CCCN2CC3)cc(OC)c1OC (configuration not stated),T/C,[8],101 % of control
same,T/C,[9],102 % of control
O=C(CCCCC(=O)Nc1ccc2[nH]c3ccccc3c(=O)c2c1)Nc1ccc2[nH]c3ccccc3c(=O)c2c1,T/C,[10],104 % of control
same,T/C,[11],105 % of control
same,T/C,[12],100 % of control
CC(=O)C(CO)C(=O)Nc1ccccc1 (configuration not stated),T/C,[13],100 % of control
same,T/C,[14],95 % of control
same,T/C,[15],95 % of control
Cn1c([N+](=O)[O-])cnc1/C=[N+](\[O-])C1CCCCC1,T/C,[16],100 % of control
same,T/C,[8],100 % of control
same,T/C,[9],102 % of control
Cc1ccc2c(=O)c3ccccc3c3c2c1c1c(C)ccc2c(=O)c4ccccc4c3c21,T/C,[5],108 % of control
same,T/C,[6],102 % of control
same,T/C,[17],107 % of control
CCc1ccc(NC(=O)/C=C\C(=O)O)cc1,T/C,[10],98 % of control
same,T/C,[11],95 % of control
same,T/C,[12],90 % of control
O=C1C2CN(Cc3ccccc3)CC2C(=O)N1c1ccccc1 (configuration not stated),T/C,[18],102 % of control
same,T/C,"dose: 120.0 mg/kg/injection, schedule: Q01DX005 (ip), vehicle: Klucel (hydroxypropylcellulose) (HPC)",97 % of control
same,T/C,"dose: 240.0 mg/kg/injection, schedule: Q01DX005 (ip), vehicle: Klucel (hydroxypropylcellulose) (HPC)",100 % of control
CC(=O)NS(=O)(=O)c1ccc(NC(=O)c2ccco2)cc1,T/C,"dose: 50.0 mg/kg/injection, schedule: Q01DX009 (ip), vehicle: saline + alcohol",98 % of control
same,T/C,"dose: 100.0 mg/kg/injection, schedule: Q01DX009 (ip), vehicle: saline + alcohol",104 % of control
same,T/C,"dose: 200.0 mg/kg/injection, schedule: Q01DX009 (ip), vehicle: saline + alcohol",91 % of control
O=C1OCCCCCCOC(=O)c2ccccc2SSc2ccccc21,T/C,"dose: 12.5 mg/kg/injection, schedule: Q01DX001 (ip), vehicle: saline with Tween-80",101 % of control
same,T/C,"dose: 25.0 mg/kg/injection, schedule: Q01DX001 (ip), vehicle: saline with Tween-80",94 % of control
same,T/C,"dose: 50.0 mg/kg/injection, schedule: Q01DX001 (ip), vehicle: saline with Tween-80",94 % of control
same,T/C,"dose: 200.0 mg/kg/injection, schedule: Q01DX001 (ip), vehicle: saline with Tween-80",88 % of control
same,T/C,"dose: 400.0 mg/kg/injection, schedule: Q01DX001 (ip), vehicle: saline with Tween-80",90 % of control
CC1=C/C(O)CC(=O)Cc2nc(co2)C(=O)N2CCC=C2C(=O)OC(C(C)C)C(C)/C=C\C(=O)NC/C=C\1 (configuration not stated),T/C,[17],111 % of control
same,T/C,"dose: 400.0 mg/kg/injection, schedule: Q01DX005 (ip), vehicle: Klucel (hydroxypropylcellulose) (HPC)",114 % of control
same,T/C,"dose: 1.0 micrograms/kg/injection, schedule: Q01DX009 (ip), vehicle: Klucel (hydroxypropylcellulose) (HPC)",104 % of control and 107 % of control and 115 % of control
same,T/C,"dose: 2.0 micrograms/kg/injection, schedule: Q01DX009 (ip), vehicle: Klucel (hydroxypropylcellulose) (HPC)",111 % of control and 114 % of control and 121 % of control
same,T/C,"dose: 4.0 micrograms/kg/injection, schedule: Q01DX009 (ip), vehicle: Klucel (hydroxypropylcellulose) (HPC)",111 % of control and 112 % of control and 121 % of control
same,T/C,"dose: 8.0 micrograms/kg/injection, schedule: Q01DX009 (ip), vehicle: Klucel (hydroxypropylcellulose) (HPC)",104 % of control and 111 % of control and 123 % of control
N#C/C(=C\c1ccco1)C(=O)c1ccco1,T/C,"dose: 12.5 mg/kg/injection, schedule: Q01DX009 (ip), vehicle: saline with Tween-80",112 % of control
same,T/C,"dose: 25.0 mg/kg/injection, schedule: Q01DX009 (ip), vehicle: saline with Tween-80",95 % of control
same,T/C,[13],89 % of control and 97 % of control
COC(=O)C1=C(C)NC(=O)NC1c1ccc(OC)cc1 (configuration not stated),T/C,"dose: 100.0 mg/kg/injection, schedule: Q04DX003 (ip), vehicle: saline with Tween-80",95 % of control
same,T/C,"dose: 200.0 mg/kg/injection, schedule: Q04DX003 (ip), vehicle: saline with Tween-80",95 % of control
same,T/C,"dose: 400.0 mg/kg/injection, schedule: Q04DX003 (ip), vehicle: saline with Tween-80",100 % of control
C=C(C)[C@H]1O[C@H]2CC[C@@]3(C)[C@@](O)(CC[C@H]4[C@@H]5OC(C)(C)[C@H]6C[C@@H]7C(=C)Cc8c(Cl)cc9[nH]c(c5c9c8C76O)[C@@]43C)[C@@]23O[C@H]3[C@H]1O (some centres not stated),T/C,"dose: 0.5 mg/kg/injection, schedule: Q01DX005 (ip), vehicle: Klucel (hydroxypropylcellulose) (HPC)",101 % of control
same,T/C,"dose: 1.0 mg/kg/injection, schedule: Q01DX005 (ip), vehicle: Klucel (hydroxypropylcellulose) (HPC)",97 % of control
same,T/C,"dose: 2.0 mg/kg/injection, schedule: Q01DX005 (ip), vehicle: Klucel (hydroxypropylcellulose) (HPC)",87 % of control
same,T/C,"dose: 3.75 mg/kg/injection, schedule: Q01DX005 (ip), vehicle: Klucel (hydroxypropylcellulose) (HPC)",107 % of control
same,T/C,"dose: 4.0 mg/kg/injection, schedule: Q01DX005 (ip), vehicle: Klucel (hydroxypropylcellulose) (HPC)",93 % of control
same,T/C,"dose: 7.5 mg/kg/injection, schedule: Q01DX005 (ip), vehicle: Klucel (hydroxypropylcellulose) (HPC)",115 % of control
same,T/C,"dose: 15.0 mg/kg/injection, schedule: Q01DX005 (ip), vehicle: Klucel (hydroxypropylcellulose) (HPC)",106 % of control
same,T/C,"dose: 30.0 mg/kg/injection, schedule: Q01DX005 (ip), vehicle: Klucel (hydroxypropylcellulose) (HPC)",107 % of control
same,T/C,[18],107 % of control
S=c1[nH]ccs1,T/C,"dose: 12.5 mg/kg/injection, schedule: Q01DX009 (ip), vehicle: water",99 % of control
same,T/C,"dose: 25.0 mg/kg/injection, schedule: Q01DX009 (ip), vehicle: water",99 % of control
same,T/C,"dose: 50.0 mg/kg/injection, schedule: Q01DX009 (ip), vehicle: water",95 % of control
C1OC2CC1CO2,T/C,[13],100 % of control
same,T/C,[14],103 % of control
same,T/C,[15],103 % of control
COc1cccc2c1C(=O)c1c(O)c3c(c(O)c1C2=O)C[C@@](O)(C(C)=O)C[C@@H]3OC1CC(NC=O)C(O)C(C)O1 (some centres not stated),T/C,"dose: 1.56 mg/kg/injection, schedule: Q01DX009 (ip), vehicle: saline",117 % of control
same,T/C,[7],119 % of control
same,T/C,[16],153 % of control
same,T/C,[8],155 % of control
CC(=O)Nc1ccc(C(F)(F)F)cc1,T/C,"dose: 25.0 mg/kg/injection, schedule: Q01DX009 (ip), vehicle: suspension in saline",94 % of control
same,T/C,"dose: 50.0 mg/kg/injection, schedule: Q01DX009 (ip), vehicle: suspension in saline",94 % of control
same,T/C,"dose: 100.0 mg/kg/injection, schedule: Q01DX009 (ip), vehicle: suspension in saline",86 % of control
CCN(Cc1cccc(S(=O)(=O)O)c1)c1ccc(C(=C2C=CC(=[N+](CC)Cc3cccc(S(=O)(=O)O)c3)C=C2)c2ccccc2Cl)cc1,T/C,[10],103 % of control
same,T/C,[11],99 % of control
same,T/C,[12],110 % of control

# From PubChem BioAssay AID330 (DTP/NCI, 2004)
